From patent publication US20090148342A1, “Hypochlorite Technology” (priority 2007, published 2009)

What was measured:
Dust mite allergen = settings: ELISA test after treatment for 1 hour; low concentration; cited from earlier work
contaminated slides = assay: Continuous disinfection of contaminated slides by vapor emitter; assay type: cell-based; settings: 6000 ppm sodium hypochlorite at pH 9; contaminated slides exposed and evaluated every couple of days
From the text: Another approach is increasing the pH of the bleach solution to reduce chlorine. See in the Examples Section below. An isobaric line for constant hypochlorous acid vapor pressure can be calculated from literature values of various equilibrium constants for various concentrations of sodium hypochlorite and pH. Thus, one can maintain the performance of a desired concentration of hypochlorous acid but eliminate chlorine by increasing pH and hypochlorite concentration according to the isobaric line. […] The higher bleach concentrations also allow for smaller volumes of solution since the volume of solution required to provide a certain number of moles of hypochlorous acid decreases as the concentration increases. […] This allows much longer product lifetimes for an emitter. […] In one embodiment, the sodium hypochlorite at about pH 9 is gelled using clay.

Klebsiella species = assay: Ceramic tile disinfection with powdered hypochlorite; settings: tile sprayed with 2% solution; contact time four minutes (positive control)
Staphococcus species = assay: as above; settings: tile treated with 2% NaOCl (positive control)
Escherica coli = assay: as above; settings: tile treated with 2% NaOCl (positive control)
[1] = Stability of thickened dilute hypochlorite at 120° F.; settings: compared with thickeners of Table XXIV

For OCl [hypochlorite ions], the “reduction of dust mite allergen binding” value (Dust mite allergen) is given as “up to 82%”.

In the case of [Na+].[O-]Cl [NaOCl, sodium hypochlorite], the “duration of continuous disinfection” value (contaminated slides) is reported as “continuous disinfection for more than a month”, the “bacterial growth on agar plate” value (Klebsiella species) is reported as “no bacterial growth” and the “bacterial growth on agar plate” value (Staphococcus species) is reported as “no growth”. The “bacterial growth on agar plate” value (Escherica coli) was “no growth”.

In the case of CCCCCCCCCCCCOS(=O)(=O)[O-].[Na+] [sodium lauryl sulfate], the “stability of dilute hypochlorite with surfactant, by comparison” value [1] is reported as “less stable than Vangel ES®”.
